The text below walks through data of patent US10676474B2, “1,6-naphthyridine derivatives as CDK4/6 inhibitor” (CSTONE PHARMACEUTICALS, priority 2016, dated 2020).

Data set [1] can be described thus: physchem. The conditions noted are these: phosphate buffer, pH 7.4, aqueous buffer, kinetic from dmso stock.
A short description of data set [2]: Thermodynamic solubility test (shake-flask, HPLC). The format is physicochemical. The settings on record: phosphate buffer, aqueous buffer, thermodynamic from solid; pH = 7.4, Table 3-2; read-out: Thermodynamic solubility. Here is the method: The thermodynamic solubility of the compounds was determined by the shake-flask method and HPLC. The solubility of the compounds is an important property that affects drug screening of compounds and the absorption of compounds in animals and humans. A saturated solution of the compound was first given and quantitatively tested by HPLC to obtain the solubility of the compound.
50 mM phosphate buffer solution, pH 7.4.
Not less than 2 mg of the sample powder was weighed into a vial of Whatman miniuniprep. If test of the thermodynamic solubility of a sample in multiple buffer solutions is required, an individual vial is required for each test.
450 μL of the buffer solution (pH 7.4) was added to each Whatman miniuniprep vial.
After the addition of the buffer solution, the Whatman miniuniprep cap with a filter was mounted and pressed above the liquid level so that the filter could contact with the buffer solution during shaking.
And the observation of the solution was recorded.
It was shaked at 550 RPM for 24 hours at room temperature (about 22 to 25° C.).
The Whatman Miniunipreps filter cap was pressed to the bottom to give the filtrate of the sample solubility solution. All sample vials should be filtered before and after insoluble substances and their leakage.
The buffer was diluted 50 folds to give a sample diluent.
Three UV standards from low to high concentration were injected into HPLC, followed by the injection of the dilutions and supernatants of the tested compounds. The tested sample was injected twice.

Data set [3] can be described thus: Metabolic stability in human liver microsomes. It counts as in vitro ADME. The conditions noted are these: 0.5 mg/mL protein, read-out: Human T1/2. On the procedure: This assay is used to test the metabolic stability of tested substances in rats, mice and human liver microsomes.
1) The tested compound with concentration of 1 μM was co-incubated with liver microsomes with a protein concentration of 0.5 mg/mL under a reducing coenzyme II regeneration system in a 37° C. water bath.
2) The positive controls include: testosterone (3A4 substrate), propafenene (2D6 substrate) and diclofenac (2C9 substrate). The incubation condition of the positive controls was consistent with that of the compound.
3) The reaction time points were: 0, 5, 10, 20, 30 and 60 minutes, and the reaction is terminated at the corresponding time point using a termination solution containing an internal standard. The compounds were also incubated with microsomes for 60 minutes without a reducing coenzyme II regeneration system and served as a negative control.
4) Each time point was a single point (n=1).
5) The sample was determined by LC/MS/MS, and the compound concentration was shown as the ratio of the peak area of the compound to the peak area of the internal standard (non-standard).
6) In the project report summary, the half-life and the clearance rate would be calculated.
(Microsomes from liver hold many membrane-bound enzymes, among them those of drug oxidation.)

In data set [4] the test system is NCI-H358 cells. Description: Cell viability assay NCI-H358 (CellTiter-Glo). It counts as cell-based. The settings on record: Homo sapiens, 168 h; NCI-H358, incubated for 7 days. Here is the method: The NCI-H358 cell line is from the cell bank of the Department of Biology of WuXi Apptec Co. Ltd. Envision Multi-Label Analyzer (PerkinElmer).
1) 100 μL of phosphate buffer solution was added to the peripheral wells of the 384-well plate and 40 μL of NCI-H358 cell suspension was added to the other wells containing 250 NCI-H358 cells. The cell plate was then placed in a carbon dioxide incubator and incubated overnight.
2) A 3-fold gradient dilution was subjected to the tested compounds using Echo. Each compound was diluted by 10 concentration gradients (diluted from 25 μM to 1.27 nM), 100 nL of which was added to the corresponding wells of the cell plate. The cell plate was then placed in a carbon dioxide incubator and incubated for 7 days.
3) 20 μL of Promega CellTiter-Glo reagent was added to each well of the cell plate, and shaken for 10 minutes away from light at room temperature to stabilize the luminescence signal. Readings were performed using a PerkinElmer Envision Multi-label Analyzer.
Table 1 provides the inhibitory activity of the compounds of the present invention against the proliferation of H358 cells.

The target in data set [5] is T1, CDK4/cyclin D1 (Homo sapiens, UniProt P11802).
T1 construct: purchased Life technology
Put plainly: Enzyme activity assay CDK4/cyclin D1 (Lance Ultra). It counts as biochemical. The conditions noted are these: 0.3 nM CDK4/cyclin D1, 350 μM ATP, 180 minutes. On the procedure: CDK4/cyclin D1, CDK6/cyclin D1 (Life technology). ULight labeled polypeptide substrates ULight-4E-BP1 and ULight-MBP (PerkinElmer). Europium labeled anti-myelin basic protein antibody and europium labeled rabbit-derived antibody (PerkinElmer). Envision Multi-label Analyzer (PerkinElmer) for signal detection.
They were respectively dissolved in an enzyme buffer solution comprising: 50 mM hydroxyethylpiperazine ethanesulfuric acid solution at pH 7.5, 1 mM ethylenediaminetetraacetic acid, 10 mM magnesium chloride, 0.01% Brij-35, 2 mM dithiothreitol. After the reaction was begun, the OptiPlate 384-well plate was sealed with a top heat seal film TopSeal-A, and incubated at room temperature for 180 minutes.
The termination buffer solution of the enzymatic reaction was prepared, and EDTA was dissolved in a 1-fold diluted assay buffer solution. The reaction was terminated and incubated at room temperature for 5 minutes. 5 μL of the assay mixed solution (prepared with europium labeled anti-myelin basic protein antibody and europium labeled rabbit-derived antibody, respectively) was added to the reactions of CDK4/cyclin D1 and CDK6/cyclin D1, respectively, and incubated at room temperature for 60 minutes. The reaction signal was detected by Envision according to the time-resolved fluorescence resonance energy transfer theory.

Data set [6] can be described thus: Two-way permeability evaluation assay of Caco-2 cells. The conditions noted are these: human, Caco-2, pH 7.4.
Data set [7] concerns Caco-2 cells. The data set is described as above. The settings on record: Caco-2.

As usually defined, the kinetic solubility is solubility judged after dilution from a stock solution rather than from solid. By thermodynamic solubility is commonly meant solubility found after equilibrating the solid with the medium. One may read the IC50 as the point on the concentration scale where inhibition reaches its midpoint. Read a high IC50 as lower potency. A word on the Papp A→B: it is how fast a substance crosses the layer from the apical side. What is called Papp B→A is how fast a substance crosses the layer from the basolateral side. In general, efflux ratio refers to a quotient of directional permeabilities that is used to spot active efflux.

In brackets after ≈: the same amount, converted by molar mass.

T1 sequence (P11802 whole entry): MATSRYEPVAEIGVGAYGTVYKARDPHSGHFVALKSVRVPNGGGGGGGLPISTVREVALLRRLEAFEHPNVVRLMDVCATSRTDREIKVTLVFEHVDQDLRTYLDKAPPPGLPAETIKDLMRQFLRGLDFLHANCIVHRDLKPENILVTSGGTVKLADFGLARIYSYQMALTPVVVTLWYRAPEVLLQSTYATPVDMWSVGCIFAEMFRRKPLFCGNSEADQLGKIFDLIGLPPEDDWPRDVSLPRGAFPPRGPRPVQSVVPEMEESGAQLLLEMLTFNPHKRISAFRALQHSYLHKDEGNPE
T1 sequence (P24385 whole entry partner): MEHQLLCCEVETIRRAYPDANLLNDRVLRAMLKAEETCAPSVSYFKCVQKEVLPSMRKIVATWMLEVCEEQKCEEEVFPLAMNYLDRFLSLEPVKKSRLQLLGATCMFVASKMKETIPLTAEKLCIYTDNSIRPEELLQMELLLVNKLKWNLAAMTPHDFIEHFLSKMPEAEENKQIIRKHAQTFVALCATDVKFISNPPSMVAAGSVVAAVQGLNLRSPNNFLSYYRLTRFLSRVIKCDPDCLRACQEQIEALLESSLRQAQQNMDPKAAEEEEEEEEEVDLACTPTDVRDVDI

`CC(=O)c1c(C)c2cnc(Nc3cnc(N4CCN(CCN(C)C)CC4)cn3)cc2n(C2CCCC2)c1=O` [Example 34] returned a kinetic solubility at 24 h in data set [1] of 0.194 mM (≈ 101 µg/mL). The solubility (thermodynamic) at 24 h in data set [2] came out at 6.42 mM (≈ 3330 µg/mL). Also, in data set [3], the half-life at 1 μM is 43.1 min. Besides, the IC50 in data set [4] was 179 nM. The same compound gave a half-inhibitory concentration (IC50) in data set [5] of 7.45 nM. Also, in data set [6], the Papp A→B at 2 h, 2 μM turned out to be 1.15 ×10⁻⁶ cm/s; the apparent permeability from basolateral to apical (Papp B→A) at 2 h, 2 μM was found to be 16 ×10⁻⁶ cm/s; the efflux ratio at 2 h, 2 μM was 14. Moreover, in data set [7], the “Category Efflux transporter substrate” value is on record as “Highly” and the “Category Permeability” value is reported as “Low”.
